We go through 11 molecules from ChEMBL document CHEMBL1201862, “PubChem BioAssay data set” (2004).

The structures appear in SMILES notation.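 Cells were grown in 96-well plates and exposed to each compound for 48 hours at five concentrations; endpoints were interpolated linearly between bracketing concentrations, or set to the highest concentration if not reached. The concentration for 50% growth inhibition is given as GI50.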 Calls of active or inactive are those of the source. No stated cut-off is given here; in the data, active = GI50 up to about 1.1 µM and inactive = higher. Square brackets hold non-standard residues; d marks the D form. Peptide text beside a SMILES is read from it. ξ: configuration not given here. ξ2Thi = NC(Cc1cccs1)C(=O)O; ξR = N=C(N)NCCCC(N)C(=O)O; ξI = CCC(C)C(N)C(=O)O; ξL = CC(C)CC(N)C(=O)O; ξK = NCCCCC(N)C(=O)O; ξT = CC(O)C(N)C(=O)O; ξA = CC(N)C(=O)O Some results are limits rather than exact numbers.

Among the test systems are UACC-62; MDA-MB-435; A549; Hs-578T; HCT-15; RXF 393; OVCAR-8; SK-MEL-2; CAKI-1; SK-MEL-28; MDA-N; UACC-257; MDA-MB-231; NCI-H23; SW-620; MOLT-4; NCI-H226; MCF7; SN12C; OVCAR-4.
Common to all, as to assay: growth of human tumour cells (NCI), 48 h

Turning to `CCOC(=O)c1nnsc1NC(=O)NN`, the GI50 is > 100 µM (inactive) in the assay with UACC-62; > 100 µM (inactive) in the assay with MDA-MB-435; > 100 µM (inactive) in the assay on A549; > 100 µM (inactive) in the assay on Hs-578T; over 100 µM in the assay on HCT-15; > 100 µM (inactive) with RXF 393. The GI50 in the assay on OVCAR-8, in the assay with SK-MEL-2, with CAKI-1, in the assay on SK-MEL-28, in the assay on MDA-N and in the assay on UACC-257 was > 100 µM (inactive) throughout. Moreover, the GI50 in the assay with MDA-MB-231 was 25.4 µM (inactive); in the assay on NCI-H23, > 100 µM (inactive); in the assay on SW-620, > 100 µM (inactive); in the assay with MOLT-4, > 10 µM (inactive); in the assay with NCI-H226 it was > 100 µM (inactive); in the assay with MCF7, > 100 µM (inactive). Also, in the assay with SN12C, the GI50 is > 100 µM (inactive).
As for `C(/Cc1ccc2c(c1)OCO2)=N\N=C1NCCCN1`, the GI50 with UACC-62 is > 100 µM (inactive); with MDA-MB-435, > 100 µM (inactive); in the assay with A549, 36.7 µM (inactive); with Hs-578T it was > 100 µM (inactive); with HCT-15 it was over 100 µM; in the assay on RXF 393, 42.9 µM (inactive). Further, the GI50 in the assay on OVCAR-8, in the assay on SK-MEL-2, in the assay on SK-MEL-28, in the assay on MDA-N, in the assay on UACC-257 and in the assay with MDA-MB-231 was > 100 µM (inactive) in each case. Moreover, the GI50 in the assay on NCI-H23 is > 100 µM (inactive); with OVCAR-4, 98.9 µM (inactive); in the assay with SW-620, > 100 µM (inactive); in the assay with MOLT-4, 24.7 µM (inactive); in the assay with NCI-H226 it was > 100 µM (inactive); with MCF7 it was 26.9 µM (inactive). Further, the GI50 in the assay on SN12C is 54.3 µM (inactive).
For the molecule `O=C1CC2OCC=C3CN4CCC56c7ccccc7N1C5C2C3CC46O` (configuration not stated), the GI50 in the assay with UACC-62 was > 100 µM (inactive); in the assay on MDA-MB-435, > 100 µM (inactive); in the assay on A549 it was > 100 µM (inactive); in the assay with Hs-578T, > 100 µM (inactive); with HCT-15 it was over 100 µM; with OVCAR-8, > 100 µM (inactive). In addition, the GI50 was > 100 µM (inactive) in the assay with SK-MEL-2; 97.3 µM (inactive) in the assay on CAKI-1; > 100 µM (inactive) with SK-MEL-28; > 100 µM (inactive) in the assay on MDA-N; > 100 µM (inactive) with UACC-257; > 100 µM (inactive) with MDA-MB-231. The GI50 in the assay with NCI-H23, in the assay with OVCAR-4, in the assay on SW-620, with MOLT-4, in the assay with NCI-H226 and in the assay on MCF7 was > 100 µM (inactive) throughout. Besides, the GI50 in the assay with SN12C was > 100 µM (inactive).
In the case of `O=C(c1ccccc1)c1ccc2[nH]c(-c3c(Cl)c(Cl)c(Cl)c(Cl)c3C(=O)N/N=C/c3ccccc3)nc2c1`, the GI50 in the assay on MDA-MB-435 was 9.25 µM (inactive); with A549 it was 27.7 µM (inactive); with Hs-578T it was 37.7 µM (inactive); in the assay on HCT-15, 23.2 µM; with RXF 393, 14.4 µM (inactive); in the assay with OVCAR-8, 32.2 µM (inactive). Besides, the GI50 in the assay on SK-MEL-2 is 21.6 µM (inactive); in the assay with CAKI-1, 34.1 µM (inactive); with SK-MEL-28 it was 24 µM (inactive); in the assay on MDA-N, 16.3 µM (inactive); with UACC-257 it was 23.3 µM (inactive); in the assay on MDA-MB-231 it was 19.2 µM (inactive). Further, the GI50 in the assay on NCI-H23 is 23 µM (inactive); in the assay on OVCAR-4 it was 16.4 µM (inactive); in the assay with SW-620, 37.2 µM (inactive); in the assay on MOLT-4 it was 11.2 µM (inactive); in the assay with NCI-H226, 19.9 µM (inactive); in the assay on MCF7, 13.6 µM (inactive). The GI50 with SN12C is 18.9 µM (inactive).
Turning to `CCOC(=O)c1ccc(Nc2nc3cc(C(F)(F)F)ccc3nc2-c2ccccc2)cc1`, the GI50 in the assay on UACC-62 was 11.1 µM (inactive); in the assay with MDA-MB-435 it was 69.3 µM (inactive); in the assay with A549, > 100 µM (inactive); with Hs-578T, 36.1 µM (inactive); with HCT-15 it was over 100 µM; in the assay with RXF 393, 21.4 µM (inactive). For the same molecule, the GI50 with OVCAR-8 is 31.3 µM (inactive); in the assay on CAKI-1, 42.9 µM (inactive); in the assay with SK-MEL-28, > 100 µM (inactive); in the assay with MDA-N it was > 100 µM (inactive); in the assay with UACC-257, > 100 µM (inactive); in the assay with MDA-MB-231, 79.6 µM (inactive). The GI50 is 40.3 µM (inactive) in the assay on NCI-H23; 63.2 µM (inactive) with SW-620; > 10 µM (inactive) in the assay on MOLT-4; > 100 µM (inactive) in the assay with NCI-H226; 19.8 µM (inactive) with MCF7; 86.1 µM (inactive) in the assay with SN12C.
Turning to `COC(=O)/C=C1/OC(c2ccccc2)=C(C)C1=O`, the GI50 with UACC-62 is 4.12 µM (inactive); in the assay with MDA-MB-435, 13.9 µM (inactive); in the assay with Hs-578T, 27.5 µM (inactive); in the assay on HCT-15, 4.79 µM; in the assay with RXF 393, 10.6 µM (inactive); in the assay on OVCAR-8, 6.08 µM (inactive). Further, the GI50 in the assay with CAKI-1 was 4.05 µM (inactive); with SK-MEL-28 it was 16.8 µM (inactive); in the assay with MDA-N, 1.36 µM (inactive); in the assay with MDA-MB-231 it was 4.86 µM (inactive); in the assay on NCI-H23, 20.2 µM (inactive); in the assay on SW-620, 2.4 µM (inactive). The results for the GI50 with MOLT-4, in the assay on NCI-H226 and with MCF7 were 3.28 µM (inactive), 15.8 µM (inactive) and 3.81 µM (inactive), respectively.
In the case of `O=C1/C(=C/c2ccc(Cl)cc2)N=C(c2ccccc2)N1c1nc2c(Cl)cc(Cl)cc2s1`, the GI50 in the assay on UACC-62 was 28.4 µM (inactive); in the assay on MDA-MB-435, 24.7 µM (inactive); with A549, 24.5 µM (inactive); with Hs-578T, 31.5 µM (inactive); in the assay on HCT-15 it was 32.4 µM; in the assay with RXF 393 it was 29.9 µM (inactive). For the same molecule, the GI50 was 31.9 µM (inactive) with OVCAR-8; 20.8 µM (inactive) in the assay on SK-MEL-2; 36.5 µM (inactive) with CAKI-1; 44.5 µM (inactive) in the assay with SK-MEL-28; 17.5 µM (inactive) in the assay with MDA-N; 41.7 µM (inactive) with UACC-257. For the same molecule, the GI50 is 30.5 µM (inactive) in the assay with MDA-MB-231; 30.9 µM (inactive) in the assay with OVCAR-4; 30.7 µM (inactive) with SW-620; 2.28 µM (inactive) in the assay on MOLT-4; 23.9 µM (inactive) in the assay on MCF7; 23.1 µM (inactive) in the assay with SN12C.
`C#CC(O)/C=C/C(O)CCCC(O)CC#CC(O)C#CCCCCC(O)/C=C/CCCCCC(=O)CCCCCCCCCCCCCC(O)C(O)C#CC(=O)O` (configuration not stated): the GI50 was > 25 µM (inactive) in the assay on UACC-62; > 25 µM (inactive) with MDA-MB-435; > 25 µM (inactive) with A549; > 25 µM (inactive) in the assay with Hs-578T; over 25 µM in the assay on HCT-15; > 25 µM (inactive) in the assay on OVCAR-8. Besides, the GI50 in the assay with SK-MEL-2, with CAKI-1, in the assay with SK-MEL-28, in the assay on MDA-N, with UACC-257 and in the assay with MDA-MB-231 was > 25 µM (inactive) each time. For the same molecule, the GI50 is > 25 µM (inactive) with NCI-H23; 15.8 µM (inactive) in the assay with OVCAR-4; 12.8 µM (inactive) in the assay with MOLT-4; > 25 µM (inactive) with NCI-H226; > 25 µM (inactive) in the assay on MCF7; > 25 µM (inactive) with SN12C.
As for `CC(C)(C)c1ccc(-c2nc3ccc([N+](=O)[O-])cc3c(=O)o2)cc1`, the GI50 was 24.5 µM (inactive) in the assay with UACC-62; 25.1 µM (inactive) in the assay on MDA-MB-435; 28.9 µM (inactive) in the assay on A549; 25.2 µM (inactive) in the assay with Hs-578T; 22.6 µM in the assay on HCT-15; 42.6 µM (inactive) with RXF 393. Also, the GI50 in the assay on OVCAR-8 was 20.9 µM (inactive); with SK-MEL-2, 20.7 µM (inactive); in the assay with CAKI-1, 50.4 µM (inactive); in the assay with SK-MEL-28, 34.4 µM (inactive); in the assay on MDA-N it was 31.6 µM (inactive); in the assay with UACC-257 it was 29.6 µM (inactive). Moreover, the GI50 in the assay on MDA-MB-231 was 27.5 µM (inactive); in the assay with NCI-H23 it was 28.7 µM (inactive); in the assay on OVCAR-4 it was 17.6 µM (inactive); in the assay on SW-620 it was 31 µM (inactive); with MOLT-4, 18.7 µM (inactive); in the assay with MCF7, 34.1 µM (inactive). Moreover, the GI50 in the assay with SN12C was 40.1 µM (inactive).
On to `CCC(C)C(NC(=O)C(Cc1cccs1)NC(=O)C(CC(C)C)NC(=O)C(CC(C)C)NC(=O)C(CCCCN)NC(=O)C(CCCN=C(N)N)NC(=O)[C@H](Cc1ccc(O)cc1)NC(=O)C(NC(=O)C(C)NC(=O)C(N)CC(C)C)C(C)O)C(=O)NC(CC(C)C)C(N)=O` (some centres not stated) (H-[ξL][ξA][ξT]Y[ξR][ξK][ξL][ξL][ξ2Thi][ξI][ξL]-NH2), for which the GI50 in the assay on UACC-62 is > 50 µM (inactive); in the assay on MDA-MB-435, > 50 µM (inactive); in the assay with A549, > 50 µM (inactive); in the assay on Hs-578T, > 50 µM (inactive); in the assay with HCT-15 it was over 50 µM; in the assay on RXF 393, > 50 µM (inactive). The GI50 in the assay on OVCAR-8, with CAKI-1, in the assay on SK-MEL-28, in the assay on MDA-N, in the assay on UACC-257 and in the assay with MDA-MB-231 was > 50 µM (inactive) throughout. The GI50 in the assay on NCI-H23, in the assay on OVCAR-4, with SW-620, in the assay with MOLT-4, with NCI-H226 and in the assay with MCF7 was > 50 µM (inactive) in each case. Besides, the GI50 in the assay with SN12C was > 50 µM (inactive).
Regarding `COc1c2ccoc2nc2c(OC)c(OCC(O)C(C)(C)O)ccc12` (configuration not stated) [EVOXINE], the GI50 in the assay on UACC-62 was > 100 µM (inactive); with MDA-MB-435 it was > 100 µM (inactive); in the assay on A549 it was > 100 µM (inactive); with Hs-578T it was > 100 µM (inactive); in the assay on HCT-15 it was over 100 µM; in the assay on OVCAR-8, > 100 µM (inactive). The GI50 in the assay with SK-MEL-2 was > 100 µM (inactive); in the assay on CAKI-1, > 100 µM (inactive); in the assay on SK-MEL-28 it was > 100 µM (inactive); in the assay on MDA-N, > 100 µM (inactive); in the assay with UACC-257 it was > 100 µM (inactive); with MDA-MB-231 it was 75.3 µM (inactive). Besides, the GI50 in the assay with NCI-H23, in the assay on OVCAR-4, with SW-620, in the assay with MOLT-4, with NCI-H226 and in the assay with MCF7 was > 100 µM (inactive) in each case. Also, the GI50 in the assay on SN12C was > 100 µM (inactive).
